Several values for one entry are separate records, joined by “and”; a condition that tells them apart may be missing. Equal values may be shown once.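 Growth conditions: 96-well plates. Treatment: test compound, 48 hours, 5 concentrations. Analysis: linear interpolation between bracketing concentrations; unreached endpoints set to highest concentration. At the GI50, growth is halved.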 Activity calls are given as the source filed them. No stated cut-off is given here; in the data, active = GI50 up to about 1.1 µM and inactive = higher.
Columns and labels:
Assay in all cases: inhibition of tumour cell growth, NCI panel, 48 h
M14 = test system: M14
NCI/ADR-RES = test system: NCI/ADR-RES
ACHN = test system: ACHN
SN12C = test system: SN12C
IGROV-1 = test system: IGROV-1
SW-620 = test system: SW-620
SR = test system: SR
NCI-H226 = test system: NCI-H226
DU-145 = test system: DU-145
Hs-578T = test system: Hs-578T
SNB-75 = test system: SNB-75
XF498 = test system: XF498
EKVX = test system: EKVX
U-251 = test system: U-251
COLO 205 = test system: COLO 205
T47D = test system: T47D
SK-OV-3 = test system: SK-OV-3
CAKI-1 = test system: CAKI-1
BT-549 = test system: BT-549
HCT-116 = test system: HCT-116

Measured: GI50

Cc1ccc([S+](c2ccccc2)c2cc(C)ccc2C)cc1.O=C(OC(C(=O)[O-])C(OC(=O)c1ccccc1)C(=O)O)c1ccccc1 (stereo not drawn)
inactive: M14 18.9 µM | NCI/ADR-RES > 100 µM | ACHN 22.9 µM | SN12C 17.7 µM | IGROV-1 10.7 µM | SW-620 7.89 µM | SR 1.85 µM | NCI-H226 15.4 µM | DU-145 34.2 µM | Hs-578T 5.12 µM | SNB-75 8.09 µM | XF498 3.75 µM | EKVX > 100 µM | U-251 5.37 µM | COLO 205 4.26 µM | T47D 6.98 µM | SK-OV-3 16.9 µM | CAKI-1 14.6 µM | BT-549 3.37 µM | HCT-116 3.49 µM

CCn1c(C)nn2c(=O)c3ccccc3nc2c1=O
inactive: M14 > 100 µM | ACHN > 100 µM | IGROV-1 > 100 µM | SW-620 > 100 µM | SNB-75 > 100 µM | XF498 > 100 µM | EKVX > 100 µM | U-251 > 100 µM | COLO 205 > 100 µM | SK-OV-3 > 100 µM | CAKI-1 > 100 µM | HCT-116 > 100 µM

COC(=O)c1ccccc1N(C(=O)c1ccccc1)c1ccccc1C
inactive: M14 24 µM | ACHN 53.6 µM | SN12C > 100 µM | IGROV-1 76.6 µM | SW-620 59.8 µM | SR 28.2 µM | NCI-H226 74.3 µM | SNB-75 > 100 µM | XF498 22.7 µM | EKVX 53.2 µM | U-251 48.2 µM | COLO 205 26 µM | SK-OV-3 24.3 µM | CAKI-1 34.4 µM | HCT-116 56.8 µM

OC(C1CO1)C(O)C1CO1 (stereo not drawn)
inactive: M14 18.6 µM | NCI/ADR-RES 40.7 µM | ACHN 4.04 µM | SN12C 20.7 µM | IGROV-1 68.1 µM | SR 1.75 µM | DU-145 9.75 µM | Hs-578T 80.9 µM | SNB-75 7.96 µM | XF498 37.2 µM | EKVX 90.4 µM | U-251 27 µM | COLO 205 87.7 µM | T47D 17 µM | SK-OV-3 43.1 µM | BT-549 120 µM | HCT-116 45.8 µM

CC1(C(=O)Nc2ccc3cc4ccccc4cc3c2)CC2(C)CC(C)(C1)C(O)NC2=O (stereo not drawn)
inactive: M14 > 100 µM | ACHN 36.7 µM | SN12C > 100 µM | IGROV-1 > 100 µM | SW-620 > 100 µM | SR 23.6 µM | NCI-H226 53.1 µM | SNB-75 > 100 µM | XF498 > 100 µM | EKVX > 100 µM | U-251 > 100 µM | COLO 205 41.6 µM | SK-OV-3 > 100 µM | CAKI-1 > 100 µM | HCT-116 > 100 µM

CC(C)c1ccc(O)c(Cc2cc(C(C)C)cc(Cc3cc(C(C)C)ccc3O)c2O)c1
inactive: M14 1.66 µM | ACHN 3.56 µM | SN12C 1.77 µM | IGROV-1 2.46 µM | SW-620 1.72 µM | SR 1.88 µM | NCI-H226 1.54 µM | SNB-75 2.16 µM | XF498 1.41 µM | EKVX 2.65 µM | U-251 1.69 µM | COLO 205 3.32 µM | SK-OV-3 1.68 µM | CAKI-1 1.53 µM | HCT-116 1.78 µM

CCN(CC)c1ccc(/N=N/c2ccc(-c3nc4ccc[n+](C)c4o3)cc2)cc1
inactive: M14 12.1 µM | SN12C 15.5 µM | IGROV-1 12.9 µM | SW-620 4.76 µM | SR 3.69 µM | NCI-H226 11.5 µM | SNB-75 11.6 µM | XF498 11.3 µM | EKVX 13.6 µM | U-251 4.57 µM | COLO 205 2.29 µM | SK-OV-3 19.5 µM | CAKI-1 12.9 µM | HCT-116 4.18 µM

CN(C)c1ccc(C2CC(=O)C(C#N)=C(c3ccccc3)NN2C)cc1 (stereo not drawn)
inactive: M14 5.04 µM | ACHN 11.4 µM | SN12C 13.6 µM | SW-620 3.97 µM | SR 14.1 µM | NCI-H226 37.4 µM | SNB-75 2.05 µM | XF498 4.55 µM | U-251 15.5 µM | SK-OV-3 12 µM | CAKI-1 9.82 µM | HCT-116 11.5 µM

O=C(N/C=C1\C(=O)Oc2ccccc2C1=O)Nc1ccccc1
inactive: M14 52.8 µM | ACHN 27.7 µM | SN12C 32.8 µM | IGROV-1 51.2 µM | SW-620 61.2 µM | SR 69 µM | NCI-H226 23.5 µM | SNB-75 12.8 µM | XF498 74.3 µM | EKVX > 100 µM | U-251 40.2 µM | COLO 205 > 100 µM | SK-OV-3 31.6 µM | CAKI-1 15.1 µM | HCT-116 37.7 µM

COc1ccc(-c2cc(=O)c3c(OC)c(OC)c(OC)c(OC)c3o2)cc1OC [NOBILETIN]
inactive: M14 55.8 µM | NCI/ADR-RES 20.3 µM | ACHN 37.3 µM | SN12C 41.5 µM | IGROV-1 49.2 µM | SW-620 47.5 µM | SR 59.7 µM | NCI-H226 91.6 µM | DU-145 61.1 µM | Hs-578T 21.1 µM | SNB-75 30.5 µM | EKVX 56.2 µM | U-251 71 µM | COLO 205 35 µM | T47D 19.5 µM | SK-OV-3 61.7 µM | CAKI-1 29.4 µM | BT-549 62.7 µM | HCT-116 72.4 µM

COc1ccccc1/C=C1\CCC(CCN(C)C)(C2=CCCC2)C1=O (stereo not drawn)
inactive: M14 15.5 µM | ACHN 16.7 µM | SN12C 22.1 µM | IGROV-1 14.1 µM | SW-620 17.5 µM | SR 31.6 µM | NCI-H226 19.5 µM | SNB-75 17.4 µM | XF498 16.5 µM | EKVX 1.81 µM | U-251 16.6 µM | COLO 205 10.2 µM | CAKI-1 20.9 µM | HCT-116 12.7 µM

C=CCN1C(=O)CNC1=S
inactive: M14 > 100 µM | NCI/ADR-RES > 100 µM | ACHN > 100 µM | SN12C > 100 µM | IGROV-1 > 100 µM | SW-620 > 100 µM | SR > 100 µM | NCI-H226 > 100 µM | DU-145 > 100 µM | Hs-578T > 100 µM | SNB-75 > 100 µM | EKVX > 100 µM | U-251 > 100 µM | COLO 205 > 100 µM | T47D > 100 µM | SK-OV-3 > 100 µM | CAKI-1 > 100 µM | BT-549 > 100 µM | HCT-116 > 100 µM

COC(=O)CC(C(C(=O)OC)C(=O)OC)N1C(=O)OCC1c1ccccc1 (stereo not drawn)
inactive: M14 > 100 µM | ACHN > 100 µM | SN12C > 100 µM | IGROV-1 > 100 µM | SW-620 43.5 µM | NCI-H226 > 100 µM | SNB-75 > 100 µM | XF498 > 100 µM | EKVX > 100 µM | U-251 > 100 µM | COLO 205 > 100 µM | SK-OV-3 > 100 µM | CAKI-1 > 100 µM | HCT-116 > 100 µM

c1ccc2c3c([nH]c2c1)C1C2CCCCN2C(c2ccncc2)N1CC3 (stereo not drawn)
inactive: M14 34.8 µM | ACHN 46.1 µM | SN12C 39.1 µM | SW-620 33.5 µM | SR 33.9 µM | SNB-75 22.8 µM | XF498 23.6 µM | EKVX 54.3 µM | U-251 39.9 µM | COLO 205 35 µM | SK-OV-3 36.6 µM | CAKI-1 34.4 µM | HCT-116 35 µM

C=C(CN(C)C)C(=O)c1ccccc1C
inactive: M14 18.1 µM | ACHN 24.7 µM | SN12C 46.9 µM | IGROV-1 > 100 µM | SW-620 16.1 µM | SR 14.2 µM | NCI-H226 > 100 µM | DU-145 > 100 µM | SNB-75 > 71.6 µM | XF498 > 50.9 µM | EKVX > 100 µM | U-251 > 100 µM | COLO 205 15.5 µM | SK-OV-3 > 100 µM | CAKI-1 27.5 µM | HCT-116 24.8 µM

Nc1nc2c(c(=O)[nH]1)N=C(COP(=O)(O)OP(=O)(O)O)CN2
inactive: M14 > 100 µM | NCI/ADR-RES > 100 µM | ACHN > 100 µM | SN12C > 100 µM | IGROV-1 > 100 µM | SW-620 > 100 µM | SR > 100 µM | NCI-H226 > 100 µM | DU-145 > 100 µM | Hs-578T > 100 µM | SNB-75 > 100 µM | EKVX > 100 µM | U-251 > 100 µM | COLO 205 > 100 µM | T47D > 100 µM | SK-OV-3 > 100 µM | CAKI-1 > 100 µM | BT-549 > 100 µM | HCT-116 > 100 µM

COc1ccc(-c2[nH]c(=O)n(C3OC(CO)C(O)C(O)C3O)c(=O)c2C#N)cc1 (stereo not drawn)
inactive: M14 > 100 µM | NCI/ADR-RES > 100 µM | ACHN > 100 µM | SN12C > 100 µM | IGROV-1 > 100 µM and 86.1 µM | SW-620 > 100 µM | SR > 100 µM | NCI-H226 > 100 µM | DU-145 > 100 µM | Hs-578T > 100 µM | SNB-75 > 100 µM | EKVX > 100 µM | U-251 > 100 µM | COLO 205 > 100 µM | T47D > 100 µM | SK-OV-3 > 100 µM | CAKI-1 > 100 µM | BT-549 > 100 µM | HCT-116 > 100 µM

— ChEMBL document CHEMBL1201862, “PubChem BioAssay data set” (2004)
